Assay results: paper PMC3265452 (PLoS Neglected Tropical Diseases, 2012)
Structures can show the parent of a compound that is named as a salt.

Target: AaDOP2 (Aedes aegypti, UniProt H6D5H2)
Assay: AaDOP2 antagonist screen of the LOPAC1280 library (HEK-CRELuc-Aadop2 cells, luminescence)
Assay type: cell-based
Conditions: not given

AaDOP2, sequence (H6D5H2 1-476): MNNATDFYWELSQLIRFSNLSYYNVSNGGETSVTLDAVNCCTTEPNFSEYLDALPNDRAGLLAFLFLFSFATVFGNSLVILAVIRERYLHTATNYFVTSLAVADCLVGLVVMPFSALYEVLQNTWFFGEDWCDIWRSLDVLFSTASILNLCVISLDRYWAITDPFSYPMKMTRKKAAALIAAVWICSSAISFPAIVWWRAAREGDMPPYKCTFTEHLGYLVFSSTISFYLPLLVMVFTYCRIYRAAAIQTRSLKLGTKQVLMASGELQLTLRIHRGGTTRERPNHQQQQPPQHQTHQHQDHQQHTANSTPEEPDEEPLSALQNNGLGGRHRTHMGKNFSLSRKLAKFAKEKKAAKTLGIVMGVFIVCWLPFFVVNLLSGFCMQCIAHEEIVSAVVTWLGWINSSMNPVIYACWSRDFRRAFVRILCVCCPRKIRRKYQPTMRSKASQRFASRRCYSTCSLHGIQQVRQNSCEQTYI

Molecule	Compound effect (percent receptor signaling in presence of test compound, relative lux units relative to the SCH23390 control)	% of the SCH23390 effect (percent inhibition of receptor response relative to the SCH23390 control) [%]
CCCn1c(C)c(C(=O)c2cccc3ccccc23)c2ccccc21 [Compound 680, JWH-015]	73	–
CNCCC=C1c2ccccc2CCc2ccccc21 [Compound 863, Nortriptyline hydrochloride]	4	–
CSC(N)=NCCC[C@H](N)C(=O)O [Compound 774, S-Methyl-L-thiocitrulline acetate]	97	–
CC(=O)NNC(=O)N1Cc2ccccc2Oc2ccc(Cl)cc21 [Compound 1094, SC 19220]	99	–
O=c1c2ccccc2[se]n1-c1ccccc1 [Compound 487, Ebselen]	102	–
S=C(Nc1ccccc1)Nc1nccs1 [Compound 938, 1-Phenyl-3-(2-thiazolyl)-2-thiourea]	84	–
COc1cc(C(O)C(=O)O)ccc1O (racemic) [Compound 573, (±)-Vanillylmandelic acid]	115	–
CC[N+](C)(C)Cc1ccccc1Br [Compound 191, Bretylium tosylate]	97	–
O=C(O)/C=C1\CCCc2ccccc2C1O (stereo not shown) [Compound 851, NCS-382]	97	–
Oc1ncnc2[nH]ncc12 [Compound 91, Allopurinol]	101	–
CN1C(C(=O)Nc2ccccn2)=C(O)c2ccccc2S1(=O)=O [Compound 954, Piroxicam]	83	–
CC[C@@H](CO)NC(=O)[C@@H]1C=C2c3cccc4c3c(cn4C)C[C@H]2N(C)C1 [Compound 823, Methysergide maleate]	82	–
C[N+](C)(C)CCOC(N)=O [Compound 257, Carbachol]	99	–
CC(C)(C)c1cc(C=C(C#N)C#N)cc(C(C)(C)C)c1O [Compound 1230, Tyrphostin A9]	25	–
CN1CCc2ccccc2Cc2[nH]c3ccccc3c2CC1 [Compound 710, LE 300]	1	99
CCCC(C)(COC(N)=O)COC(=O)NC(C)C (stereo not shown) [Compound 312, Carisoprodol]	130	–
Nc1nc(OCc2ccccc2)c2nc[nH]c2n1 [Compound 163, O6-benzylguanine]	80	–
CN/C(=N/CCSCc1nc[nH]c1C)NC#N [Compound 262, Cimetidine]	88	–
CN1CCc2cccc3c2[C@H]1Cc1ccc(O)c(O)c1-3 [Compound 48, Apomorphine hydrochloride hemihydrate]	54	–
C=C1C(=O)O[C@H]2[C@H]1CC/C(C)=C/CC[C@@]1(C)O[C@@H]21 [Compound 919, Parthenolide]	74	–
Cc1nccc2c1[nH]c1ccccc12 [Compound 597, Harmane]	60	–

Molecule	Compound effect (percent receptor signaling in presence of test compound, relative lux units relative to the SCH23390 control)	% of the SCH23390 effect (percent inhibition of receptor response relative to the SCH23390 control) [%]
CC#CCOC(=O)c1c(C)nc2sc3c(c2c1N)CCC(O)C3 (stereo not shown) [Compound 1112, SB 205384]	81	–
CNCCCC1c2ccccc2C=Cc2ccccc21 [Compound 986, Protriptyline hydrochloride]	18	–
COc1ccc2c(c1)c(CC(=O)O)c(C)n2Cc1ccc(Cl)cc1 [Compound 232, 1-(4-Chlorobenzyl)-5-methoxy-2-methylindole-3-acetic acid]	77	–
CC(=O)CCCCn1c(=O)c2c(ncn2C)n(C)c1=O [Compound 926, Pentoxifylline]	119	–
WB 64 [Compound 1263]	83	–
CCS(=O)(=O)Nc1cccc(C(=C2CCCCC2)c2cnc[nH]2)c1 [Compound 70, A-315456]	111	–
CC(C)N(CCC(C(N)=O)(c1ccccc1)c1ccccn1)C(C)C (stereo not shown) [Compound 409, Disopyramide]	95	–
CC[C@@]1(O)C(=O)OCc2c1cc1n(c2=O)Cc2cc3ccccc3nc2-1 [Compound 323, (S)-(+)-Camptothecin]	7	93
CC[C@H](C)[C@H]1O[C@]2(CC[C@@H]1C)C[C@@H]1C[C@@H](C/C=C(\C)[C@@H](O[C@H]3C[C@H](OC)[C@@H](O[C@H]4C[C@H](OC)[C@@H](O)[C@H](C)O4)[C@H](C)O3)[C@@H](C)/C=C/C=C3\CO[C@@H]4[C@H](O)C(C)=C[C@@H](C(=O)O1)[C@]34O)O2 [Compound 662, Ivermectin]	101	–
CCCn1c(=O)c2[nH]c(-c3ccc(OCC(=O)NCCN)cc3)nc2n(CCC)c1=O [Compound 1272, Xanthine amine congener]	90	–
CCCNCC(O)COc1ccccc1C(=O)CCc1ccccc1 (stereo not shown) [Compound 948, Propafenone hydrochloride]	74	–
O=C(O)/C=C/c1ccc(O)c(O)c1 [Compound 221, Caffeic Acid]	114	–
Cc1nnc2ccc(-c3cccc(C(F)(F)F)c3)nn12 [Compound 754, 3-Methyl-6-(3-[trifluoromethyl]phenyl)-1,2,4-triazolo[4,3-b]pyridazine]	87	–
O=c1[nH]c(=O)n([C@H]2C[C@H](O)[C@@H](CO)O2)cc1/C=C/Br [Compound 194, (E)-5-(2-Bromovinyl)-2'-deoxyuridine]	121	–
CCOC(=O)C1=C(C)NC(C)=C(C(=O)OC)C1c1cccc([N+](=O)[O-])c1 (stereo not shown) [Compound 881, Nitrendipine]	103	–
Cl.Cl.c1ccc(CCCN2CCN(CCOC(c3ccccc3)c3ccccc3)CC2)cc1 [Compound 560, GBR-12935 dihydrochloride]	61	–
Nc1ncnc2c1ncn2[C@@H]1O[C@H](COP(=O)(O)OP(=O)(O)OP(=O)(O)OP(=O)(O)OC[C@H]2O[C@@H](n3cnc4c(N)ncnc43)[C@H](O)[C@@H]2O)[C@@H](O)[C@H]1O [Compound 360, P1,P4-Di(adenosine-5')tetraphosphate triammonium]	75	–
N[C@@H]1CON=C1O [Compound 250, D-Cycloserine]	91	–
CCCn1c(=O)c2[nH]c(-c3ccc(OCC(=O)Nc4ccc(C#N)cc4)cc3)nc2n(CCC)c1=O [Compound 785, MRS 1754]	98	–
N=C(N)c1ccccc1 [Compound 181, Benzamidine hydrochloride]	87	–

Same assay, conditions: 10 µM compound, 300 nM dopamine, 2 hr; hit = compound effect <20

Molecule	Compound effect (percent receptor signaling in presence of test compound, relative lux units relative to the SCH23390 control) [%]
CCCCCCCCCCCCCCC[C@H](O)[C@H](N)CO (racemic) [Compound 406, DL-erythro-Dihydrosphingosine]	88
COc1ccccc1N1CCN(CCN(C(=O)C2CCCCC2)c2ccccn2)CC1.O=C(O)/C=C\C(=O)O [Compound 1267, WAY-100635 maleate]	101
Br.CCCN(CCC)[C@@H]1CCc2ccc(O)cc2C1 [Compound 625, R-(+)-7-Hydroxy-DPAT hydrobromide]	85
CNC(=O)[C@H]1O[C@@H](n2cnc3c(NCc4ccc(N)cc4)ncnc32)[C@H](O)[C@@H]1O [Compound 143, AB-MECA]	100
Cl.N=C(N)NN [Compound 99, Aminoguanidine hydrochloride]	107
Cl.Nc1cc(Cl)c(N=C2NCCN2)c(Cl)c1 [Compound 20, p-Aminoclonidine hydrochloride]	79
C[C@]12CCC(=O)C=C1CC[C@@H]1[C@@H]2C(=O)C[C@@]2(C)[C@H]1CC[C@]2(O)C(=O)CO [Compound 240, Cortisone]	86
Cl.O=C(O)C1=CCCN(CCON=C(c2ccccc2)c2ccccc2)C1 [Compound 880, NO-711 hydrochloride]	81
NC1CONC1=O (racemic) [Compound 291, DL-Cycloserine]	94
O=C(O)CC[C@@H](C(=O)O)N1C(=O)c2ccccc2C1=O [Compound 928, L-Glutamic acid, N-phthaloyl-]	106

Same assay, conditions: read-out: % of the SCH23390 effect (percent inhibition of receptor response relative to the SCH23390 control)

Molecule	inhibition at 10 µM [%]
CNCCC=C1c2ccccc2CCc2ccccc21 [Compound 863, Nortriptyline hydrochloride]	96
CNCCCC1c2ccccc2C=Cc2ccccc21 [Compound 986, Protriptyline hydrochloride]	82
